Source: US20250381243A1, “HETEROCYCLES AND USES THEREOF” (Kumquat Biosciences Inc., priority 2022, published 2025)
Like-named read-outs stand apart in the source and are kept apart here.

Test system: A549 cells
Experiment: Cell proliferation assay (CellTiter-Glo), cells with K-Ras G12S mutation
Assay type: cell-based
Details: Homo sapiens, read-out: Inhibition of A549 Cells (IC50)
Procedure, shortened: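 A549 (K-Ras G12S) cells in RPMI-1640 with 10% heat-inactivated FBS, plated in standard or ultra-low-attachment 384-well format, treated next day with a dilution series (e.g., 10-point, 3-fold). Viability read by CellTiter-Glo luminescence about 6 days later; IC50 from four-parameter fit.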

IC50 (≤500 nM) [nM] | IC50 (500 nM to 5 μM (mixed units)) [nM] | SMILES
≤ 500 |  | CC(C)[C@H]1N(C(=O)n2cnc(C(F)F)n2)C[C@]12CCCN(c1nc(OC[C@@]34CCCN3C[C@H](F)C4)nc3c(F)c(-c4ccc(F)c5sc(N)c(C#N)c45)c(Cl)cc13)C2 [Compound 165, 2-amino-4-(6-chloro-4-((1R,4R)-2-(3-(difluoromethyl)-1H-1,2,4-triazole-1-carbonyl)-1-isopropyl-2,6-diazaspiro[3.5]nonan-6-yl)-8-fluoro-2-(((2R,7aS)-2-fluorotetrahydro-1H-pyrrolizin-7a(5H)-yl)methoxy)quinazolin-7-yl)-7-fluorobenzo[b]thiophene-3-carbonitrile]
≤ 500 |  | CC(C)[C@H]1N(C(=O)n2cnc(C(F)(F)F)n2)C[C@@]12CN(c1nc(OC[C@@]34CCCN3C[C@H](F)C4)nc3c(F)c(-c4ccc(F)c5sc(N)c(C#N)c45)c(Cl)cc13)CCO2 [Compound 160, 2-amino-4-(6-chloro-8-fluoro-2-(((2R,7aS)-2-fluorotetrahydro-1H-pyrrolizin-7a(5H)-yl)methoxy)-4-((1R,4S)-1-isopropyl-2-(3-(trifluoromethyl)-1H-1,2,4-triazole-1-carbonyl)-5-oxa-2,8-diazaspiro[3.5]nonan-8-yl)quinazolin-7-yl)-7-fluorobenzo[b]thiophene-3-carbonitrile]
 | 500 to 5000 | CCN(C(=O)n1cnc(Cl)n1)C1CCN(c2nc(OC[C@@]34CCCN3C[C@H](F)C4)nc3c(F)c(-c4ccc(F)c5sc(N)c(C#N)c45)c(Cl)cc23)C1C (stereo partly drawn) [Compound 149, N-(1-(7-(2-amino-3-cyano-7-fluorobenzo[b]thiophen-4-yl)-6-chloro-8-fluoro-2-(((2R,7aS)-2-fluorotetrahydro-1H-pyrrolizin-7a(5H)-yl)methoxy)quinazolin-4-yl)-2-methylpyrrolidin-3-yl)-3-chloro-N-ethyl-1H-1,2,4-triazole-1-carboxamide]
≤ 500 |  | C[C@@H]1[C@H](N(C)C(=O)n2cnc(F)n2)CCN1c1nc(OC[C@@]23CCCN2C[C@H](F)C3)nc2c(F)c(-c3ccc(F)c4sc(N)c(C#N)c34)c(Cl)cc12 [Compound 111, N-((2R,3R)-1-(7-(2-amino-3-cyano-7-fluorobenzo[b]thiophen-4-yl)-6-chloro-8-fluoro-2-(((2R,7aS)-2-fluorotetrahydro-1H-pyrrolizin-7a(5H)-yl)methoxy)quinazolin-4-yl)-2-methylpyrrolidin-3-yl)-3-fluoro-N-methyl-1H-1,2,4-triazole-1-carboxamide]
 | 500 to 5000 | CC1C2C(CCN2c2nc(OC[C@@]34CCCN3C[C@H](F)C4)nc3c(F)c(-c4ccc(F)c5sc(N)c(C#N)c45)c(Cl)cc23)CN1C(=O)n1cncn1 (single isomer, unassigned) [Compound 121]
≤ 500 |  | CC(C)[C@H]1N(C(=O)n2cnc(F)n2)C[C@]12CCCCN(c1nc(OC[C@@]34CCCN3C[C@H](F)C4)nc3c(F)c(-c4ccc(F)c5sc(N)c(C#N)c45)c(Cl)cc13)C2 [Compound 141, 2-amino-4-(6-chloro-8-fluoro-4-((1R,4R)-2-(3-fluoro-1H-1,2,4-triazole-1-carbonyl)-1-isopropyl-2,6-diazaspiro[3.6]decan-6-yl)-2-(((2R,7aS)-2-fluorotetrahydro-1H-pyrrolizin-7a(5H)-yl)methoxy)quinazolin-7-yl)-7-fluorobenzo[b]thiophene-3-carbonitrile]
≤ 500 |  | CC(C)[C@H]1N(C(=O)n2cncn2)C[C@]12CCCN(c1nc(OC[C@@]34CCCN3C[C@H](F)C4)nc3c(F)c(-c4ccc(F)c5sc(N)c(C#N)c45)c(Cl)cc13)C2 [Compound 118, 2-amino-4-(6-chloro-8-fluoro-2-(((2R,7aS)-2-fluorotetrahydro-1H-pyrrolizin-7a(5H)-yl)methoxy)-4-((1R,4R)-1-isopropyl-2-(1H-1,2,4-triazole-1-carbonyl)-2,6-diazaspiro[3.5]nonan-6-yl)quinazolin-7-yl)-7-fluorobenzo[b]thiophene-3-carbonitrile]
 | 500 to 5000 | N#CCCN(C(=O)n1cncn1)C1CCCN(c2nc(OC[C@@]34CCCN3C[C@H](F)C4)nc3c(F)c(-c4ccc(F)c5sc(N)c(C#N)c45)c(Cl)cc23)CC1 (stereo partly drawn) [Compound 166, N-(1-(7-(2-amino-3-cyano-7-fluorobenzo[b]thiophen-4-yl)-6-chloro-8-fluoro-2-(((2R,7aS)-2-fluorotetrahydro-1H-pyrrolizin-7a(5H)-yl)methoxy)quinazolin-4-yl)azepan-4-yl)-N-(2-cyanoethyl)-1H-1,2,4-triazole-1-carboxamide]
≤ 500 |  | CC(C)N(C(=O)n1cncn1)[C@H]1CCN(c2nc(OC[C@@]34CCCN3C[C@H](F)C4)nc3c(F)c(-c4ccc(F)c5sc(N)c(C#N)c45)c(Cl)cc23)C1 [Compound 180, N-((3S)-1-(7-(2-amino-3-cyano-7-fluorobenzo[b]thiophen-4-yl)-6-chloro-8-fluoro-2-(((2R,7aS)-2-fluorotetrahydro-1H-pyrrolizin-7a(5H)-yl)methoxy)quinazolin-4-yl)pyrrolidin-3-yl)-N-isopropyl-1H-1,2,4-triazole-1-carboxamide]
≤ 500 |  | CC(C)[C@H]1N(C(=O)n2cnc(C(F)F)n2)C[C@]12CCCCN(c1nc(OC[C@@]34CCCN3C[C@H](F)C4)nc3c(F)c(-c4ccc(F)c5sc(N)c(C#N)c45)c(Cl)cc13)C2 [Compound 226, 2-amino-4-(6-chloro-4-((1R,4R)-2-(3-(difluoromethyl)-1H-1,2,4-triazole-1-carbonyl)-1-isopropyl-2,6-diazaspiro[3.6]decan-6-yl)-8-fluoro-2-(((2R,7aS)-2-fluorotetrahydro-1H-pyrrolizin-7a(5H)-yl)methoxy)quinazolin-7-yl)-7-fluorobenzo[b]thiophene-3-carbonitrile]
≤ 500 |  | CC[C@H]1N(C(=O)n2cnc(Cl)n2)C[C@]12CCCCN(c1nc(OC[C@@]34CCCN3C[C@H](F)C4)nc3c(F)c(-c4ccc(F)c5sc(N)c(C#N)c45)c(Cl)cc13)C2 [Compound 131, 2-amino-4-(6-chloro-4-((1R,4R)-2-(3-chloro-1H-1,2,4-triazole-1-carbonyl)-1-ethyl-2,6-diazaspiro[3.6]decan-6-yl)-8-fluoro-2-(((2R,7aS)-2-fluorotetrahydro-1H-pyrrolizin-7a(5H)-yl)methoxy)quinazolin-7-yl)-7-fluorobenzo[b]thiophene-3-carbonitrile]
 | 500 to 5000 | N#CCCN(C(=O)n1cncn1)C1CCN(c2nc(OC[C@@]34CCCN3C[C@H](F)C4)nc3c(F)c(-c4ccc(F)c5sc(N)c(C#N)c45)c(Cl)cc23)C1 (stereo partly drawn) [Compound 145, N-(1-(7-(2-amino-3-cyano-7-fluorobenzo[b]thiophen-4-yl)-6-chloro-8-fluoro-2-(((2R,7aS)-2-fluorotetrahydro-1H-pyrrolizin-7a(5H)-yl)methoxy)quinazolin-4-yl)pyrrolidin-3-yl)-N-(2-cyanoethyl)-1H-1,2,4-triazole-1-carboxamide]
≤ 500 |  | CCN(C(=O)n1cncn1)C1CCCN(c2nc(OC[C@@]34CCCN3C[C@H](F)C4)nc3c(F)c(-c4ccc(F)c5sc(N)c(C#N)c45)c(Cl)cc23)C1 (stereo partly drawn) [Compound 209, N-(1-(7-(2-amino-3-cyano-7-fluorobenzo[b]thiophen-4-yl)-6-chloro-8-fluoro-2-(((2R,7aS)-2-fluorotetrahydro-1H-pyrrolizin-7a(5H)-yl)methoxy)quinazolin-4-yl)piperidin-3-yl)-N-ethyl-1H-1,2,4-triazole-1-carboxamide]
 | 500 to 5000 | N#Cc1c(N)sc2c(F)ccc(-c3c(Cl)cc4c(N5CCOC6(C5)CN(C(=O)n5cncn5)C6C5CC5)nc(OC[C@@]56CCCN5C[C@H](F)C6)nc4c3F)c12 (stereo partly drawn) [Compound 156, 2-amino-4-(6-chloro-4-(1-cyclopropyl-2-(1H-1,2,4-triazole-1-carbonyl)-5-oxa-2,8-diazaspiro[3.5]nonan-8-yl)-8-fluoro-2-(((2R,7aS)-2-fluorotetrahydro-1H-pyrrolizin-7a(5H)-yl)methoxy)quinazolin-7-yl)-7-fluorobenzo[b]thiophene-3-carbonitrile]
≤ 500 |  | CCN(C(=O)n1cnc(Cl)n1)[C@@H]1CCN(c2nc(OC[C@@]34CCCN3C[C@H](F)C4)nc3c(F)c(-c4ccc(F)c5sc(N)c(C#N)c45)c(Cl)cc23)[C@@H]1C (single isomer, unassigned) [Compound 171]
≤ 500 |  | C[C@H]1CC[C@]2(CN(C(=O)n3cnc(F)n3)[C@@H]2C2CCC2)CN1c1nc(OC[C@@]23CCCN2C[C@H](F)C3)nc2c(F)c(-c3ccc(F)c4sc(N)c(C#N)c34)c(Cl)cc12 [Compound 199, 2-amino-4-(6-chloro-4-((1R,4R,7S)-1-cyclobutyl-2-(3-fluoro-1H-1,2,4-triazole-1-carbonyl)-7-methyl-2,6-diazaspiro[3.5]nonan-6-yl)-8-fluoro-2-(((2R,7aS)-2-fluorotetrahydro-1H-pyrrolizin-7a(5H)-yl)methoxy)quinazolin-7-yl)-7-fluorobenzo[b]thiophene-3-carbonitrile]
≤ 500 |  | CCN(C(=O)n1cncn1)C1CCN(c2nc(OC[C@@]34CCCN3C[C@H](F)C4)nc3c(F)c(-c4ccc(F)c5sc(N)c(C#N)c45)c(Cl)cc23)C1 (stereo partly drawn) [Compound 177, N-(1-(7-(2-amino-3-cyano-7-fluorobenzo[b]thiophen-4-yl)-6-chloro-8-fluoro-2-(((2R,7aS)-2-fluorotetrahydro-1H-pyrrolizin-7a(5H)-yl)methoxy)quinazolin-4-yl)pyrrolidin-3-yl)-N-ethyl-1H-1,2,4-triazole-1-carboxamide]
≤ 500 |  | N#Cc1c(N)sc2c(F)ccc(-c3c(Cl)cc4c(N5CCC(N(C(=O)n6cnc(Cl)n6)C6CC6)C5)nc(OC[C@@]56CCCN5C[C@H](F)C6)nc4c3F)c12 (stereo partly drawn) [Compound 143, N-(1-(7-(2-amino-3-cyano-7-fluorobenzo[b]thiophen-4-yl)-6-chloro-8-fluoro-2-(((2R,7aS)-2-fluorotetrahydro-1H-pyrrolizin-7a(5H)-yl)methoxy)quinazolin-4-yl)pyrrolidin-3-yl)-3-chloro-N-cyclopropyl-1H-1,2,4-triazole-1-carboxamide]
